Source: PubChem BioAssay AID1259407 (Chemical Carcinogenesis Research Information System (CCRIS), 2018)
Calls of active or inactive are those of the source. The rule behind the calls is not given here.

System: CCRIS mutagenicity, Ames/micronucleus/aberration tests
Test: CCRIS mutagenicity studies

## COc1cccc2c1C(=O)c1c(O)c3c(c(O)c1C2=O)C[C@@](O)(C(=O)CO)C[C@@H]3O[C@H]1C[C@H](N)[C@H](O)[C@H](C)O1
End Point: IN VITRO CHROMOSOMAL ABERRATIONS, Test System: CHO-WBL CELLS, Metabolic Activation: NONE
  mutagenic call: active; positive
End Point: IN VITRO CHROMOSOMAL ABERRATIONS, Test System: HUMAN (MALE) PERIPHERAL LYMPHOCYTES, Metabolic Activation: NONE, Method: FISH (METAPHASE)
  mutagenic call: active; positive (structural changes)
End Point: IN VIVO CHROMOSOMAL ABERRATIONS, Test System: BONE MARROW CELLS, Species: RAT, Strain/Sex: WISTAR/MALE, FEMALE, Route: IP
  mutagenic call: active; positive (structural changes; abnormal metaphase)
End Point: IN VIVO CHROMOSOMAL ABERRATIONS, Test System: BONE MARROW CELLS, Species: RAT, Strain/Sex: WISTAR, Route: IP
  mutagenic call: active; positive
End Point: IN VIVO CHROMOSOMAL ABERRATIONS, Test System: BONE MARROW, Species: RAT, Strain/Sex: WISTAR/MALE, FEMALE, Route: INTRAPERITONEAL
  mutagenic call: active; positive (structural changes)
End Point: IN VIVO CHROMOSOMAL ABERRATIONS, Test System: BONE MARROW, Species: RAT, Strain/Sex: WISTAR, Route: INTRAPERITONEAL (TEST MATERIAL SOLVENT: WATER)
  mutagenic call: active; positive (structural changes)
End Point: In vitro chromosomal aberrations, Test System: Chinese hamster ovary (CHO) cells, Metabolic Activation: None
  mutagenic call: active; positive (structural changes)
End Point: In vitro chromosomal aberrations, Test System: Human (female) lymphocytes
  mutagenic call: active; positive. fucus vesiculosus extract (84696-13-9) at 0.25-1.0 mg/ml was antimutag
End Point: In vitro chromosomal aberrations, Test System: Human lymphocytes, Metabolic Activation: None
  mutagenic call: active; positive (structural changes). significantly reduced by selenomethionine treatme
End Point: In vitro micronucleus, Test System: Human peripheral blood lymphocytes, Metabolic Activation: None
  mutagenic call: active; positive
End Point: In vivo chromosomal aberrations, Test System: Bone marrow cells, Species: Rat, Strain/Sex: Wistar/Male and female, Route: Intraperitoneal
  mutagenic call: active; positive (structural changes); administration of vitamin c or vitamin e decrease
End Point: In vivo chromosomal aberrations, Test System: Bone marrow cells, Species: Rat, Strain/Sex: Wistar/Male and female, Route: Oral
  mutagenic call: active; positive (structural changes)
End Point: In vivo chromosomal aberrations, Test System: Bone marrow, Species: Rat, Strain/Sex: Wistar/Male and female, Route: Intraperitoneal (Test material solvent: either distilled water or DMSO solution)
  mutagenic call: active; positive (structural changes). prior treatment with propolis extract reduced the
End Point: In vivo micronucleus, Test System: Bone marrow erythrocytes, Species: Mouse, Strain/Sex: Swiss albino/Male, Route: Oral
  mutagenic call: inactive; negative
Test System: AMES SALMONELLA TYPHIMURIUM, Strain/Indicator: GW257, Metabolic Activation: NONE, Method: STANDARD PLATE
  mutagenic call: active; positive
Test System: AMES SALMONELLA TYPHIMURIUM, Strain/Indicator: TA97, Metabolic Activation: NONE, Method: STANDARD PLATE
  mutagenic call: inactive; negative
Test System: AMES SALMONELLA TYPHIMURIUM, Strain/Indicator: TA97, Metabolic Activation: RAT, LIVER, S-9, PHENOBARBITAL AND ALPHA-NAPHTHOFLAVONE, Method: STANDARD PLATE
  mutagenic call: inactive; negative
Test System: AMES SALMONELLA TYPHIMURIUM, Strain/Indicator: TA97A, Metabolic Activation: NONE, Method: STANDARD PLATE
  mutagenic call: inactive; negative
Test System: AMES SALMONELLA TYPHIMURIUM, Strain/Indicator: TA97A, Metabolic Activation: RAT, LIVER, S-9, AROCLOR 1254, Method: STANDARD PLATE
  mutagenic call: inactive; negative
Test System: AMES SALMONELLA TYPHIMURIUM, Strain/Indicator: TA98, Metabolic Activation: NONE, Method: PREINCUBATION
  mutagenic call: active; positive
Test System: AMES SALMONELLA TYPHIMURIUM, Strain/Indicator: TA98, Metabolic Activation: RAT, LIVER, S-9, AROCLOR 1254, Method: STANDARD PLATE
  mutagenic call: active; positive
Test System: AMES SALMONELLA TYPHIMURIUM, Strain/Indicator: TA98, Metabolic Activation: RAT, LIVER, S-9, KC500 OR PHENOBARBITAL, Method: LIQUID SUSPENSION
  mutagenic call: active; positive
Test System: AMES SALMONELLA TYPHIMURIUM, Strain/Indicator: TA98, Metabolic Activation: RAT, LIVER, S-9, PHENOBARBITAL AND ALPHA-NAPHTHOFLAVONE, Method: STANDARD PLATE
  mutagenic call: active; positive
Test System: AMES SALMONELLA TYPHIMURIUM, Strain/Indicator: TA98, Metabolic Activation: S-9, Method: PREINCUBATION
  mutagenic call: active; positive
Test System: AMES SALMONELLA TYPHIMURIUM, Strain/Indicator: TA100, Metabolic Activation: NONE, Method: PREINCUBATION
  mutagenic call: inactive; negative
Test System: AMES SALMONELLA TYPHIMURIUM, Strain/Indicator: TA100, Metabolic Activation: RAT, LIVER, S-9, AROCLOR 1254, Method: STANDARD PLATE
  mutagenic call: inactive; negative
Test System: AMES SALMONELLA TYPHIMURIUM, Strain/Indicator: TA100, Metabolic Activation: RAT, LIVER, S-9, PHENOBARBITAL AND ALPHA-NAPHTHOFLAVONE, Method: STANDARD PLATE
  mutagenic call: active; positive
Test System: AMES SALMONELLA TYPHIMURIUM, Strain/Indicator: TA100, Metabolic Activation: S-9, Method: PREINCUBATION
  mutagenic call: active; positive
Test System: AMES SALMONELLA TYPHIMURIUM, Strain/Indicator: TA102, Metabolic Activation: NONE, Method: STANDARD PLATE
  mutagenic call: active; positive
Test System: AMES SALMONELLA TYPHIMURIUM, Strain/Indicator: TA102, Metabolic Activation: RAT, LIVER, S-9, AROCLOR 1254, Method: STANDARD PLATE
  mutagenic call: active; positive
Test System: AMES SALMONELLA TYPHIMURIUM, Strain/Indicator: TA1535, Metabolic Activation: NONE, Method: STANDARD PLATE
  mutagenic call: inactive; negative
Test System: AMES SALMONELLA TYPHIMURIUM, Strain/Indicator: TA1535, Metabolic Activation: RAT, LIVER, S-9, PHENOBARBITAL AND ALPHA-NAPHTHOFLAVONE, Method: STANDARD PLATE
  mutagenic call: inactive; negative
Test System: AMES SALMONELLA TYPHIMURIUM, Strain/Indicator: TA1537, Metabolic Activation: NONE, Method: STANDARD PLATE
  mutagenic call: inactive; negative
Test System: AMES SALMONELLA TYPHIMURIUM, Strain/Indicator: TA1978/PKM101, Metabolic Activation: NONE, Method: STANDARD PLATE
  mutagenic call: active; positive
Test System: AMES SALMONELLA TYPHIMURIUM, Strain/Indicator: TA1978, Metabolic Activation: NONE, Method: STANDARD PLATE
  mutagenic call: inactive; negative
Test System: AMES SALMONELLA TYPHIMURIUM, Strain/Indicator: TA2637, Metabolic Activation: NONE, Method: STANDARD PLATE
  mutagenic call: active; positive
Test System: CHINESE HAMSTER OVARY, Strain/Indicator: CHO-AS52 (GPT), Metabolic Activation: NONE
  mutagenic call: active; positive
Test System: CHINESE HAMSTER OVARY, Strain/Indicator: CHO-K1-BH4 (HPRT), Metabolic Activation: NONE
  mutagenic call: active; positive
Test System: CHINESE HAMSTER V-79, Strain/Indicator: V-79 (HGPRT)/6-THIOGUANINE, Metabolic Activation: NONE
  mutagenic call: active; positive
Test System: CHINESE HAMSTER V-79, Strain/Indicator: V-79-MZ (HPRT)/6-THIOGUANINE, Metabolic Activation: NONE
  mutagenic call: active; positive
Test System: CHINESE HAMSTER V-79, Strain/Indicator: V-79/6-THIOGUANINE, Metabolic Activation: RAT, LIVER, HEPATOCYTES, Method: SUSPENSION/PLATE
  mutagenic call: active; positive
Test System: CHINESE HAMSTER V-79, Strain/Indicator: V-79/6-THIOGUANINE, Metabolic Activation: RAT, LIVER, HOMOGENATE, Method: SUSPENSION/PLATE
  mutagenic call: inactive; negative
Test System: CHINESE HAMSTER V-79, Strain/Indicator: V-79/8-AZAGUANINE, Metabolic Activation: NONE, Method: STANDARD PLATE
  mutagenic call: active; positive
Test System: CHINESE HAMSTER V-E5, Strain/Indicator: V-E5 (HPRT)/6-THIOGUANINE, Metabolic Activation: NONE
  mutagenic call: active; positive
Test System: E. COLI, Strain/Indicator: WP2 (HCR), Metabolic Activation: NONE, Method: STANDARD PLATE
  mutagenic call: inactive; negative
Test System: MOUSE LYMPHOMA, Strain/Indicator: L5178Y (TK+/TK-), Metabolic Activation: NONE, Method: SUSPENSION/PLATE
  mutagenic call: active; positive

## CC(=O)[O-].CC(=O)[O-].O.O.O.[Pb+2]
End Point: IN VITRO MICRONUCLEUS, Test System: HAMSTER V79 CELLS, Metabolic Activation: NONE
  mutagenic call: active; positive (aneugenic above 0.05 um)
End Point: IN VIVO MICRONUCLEUS, Test System: BLOOD ERYTHROCYTES AND RETICULOCYTES, Species: RAT, Strain/Sex: WISTAR/MALE, FEMALE (SUCKLING), Route: IP INJECTION
  mutagenic call: inactive; negative
End Point: IN VIVO MICRONUCLEUS, Test System: RETICULOCYTES, ERYTHROCYTES, Species: RAT, Strain/Sex: WISTAR/MALE, FEMALE (SUCKLING), Route: ORAL
  mutagenic call: active; positive
End Point: In vivo micronucleus, Test System: Bone marrow polychromatic erythrocytes, Species: Rat, Strain/Sex: Wistar/Male, female, Route: Oral
  mutagenic call: active; positive
